Source: patent US20260356856A1, “KRAS G12S AND G12C INHIBITORS” (MIRATI THERAPEUTICS, INC., priority 2023, published 2026)

Assays:
Assay in all cases: KRas binding assay, TR-FRET displacement of Cy5 labelled tracer
Details in all cases: 60-minute incubation at room temperature, 1% DMSO, pH 7.5
[1] = molecular target: T1, KRas G12C (Homo sapiens, UniProt P01116, G12C)
T1 construct: Biotinylated KRas (corresponding to amino acids 1-169, produced at Accelegan Inc.); biotin (biotinylated); purchased Accelegan Inc
T1 sequence (P01116 1-169 isoform P01116-2 G12C): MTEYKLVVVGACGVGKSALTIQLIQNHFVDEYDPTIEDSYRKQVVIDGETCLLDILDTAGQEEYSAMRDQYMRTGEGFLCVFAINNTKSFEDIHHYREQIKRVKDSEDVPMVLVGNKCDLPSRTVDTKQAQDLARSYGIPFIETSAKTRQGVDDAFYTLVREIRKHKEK
Procedure: (§1) This Example illustrates that exemplary compounds of the present invention bind to KRas and are capable of displacing a labeled tracer ligand occupying the KRas binding site. KRas^WT, KRas^G12A, KRas^G12C, KRas^G12D, KRas^G12R, KRas^G12S, KRas^G12V, KRas^G13D, or KRas^Q61H was used in the assay.
(§2) The ability of a compound to bind to KRas was measured using a TR-FRET displacement assay. Biotinylated KRas (corresponding to amino acids 1-169, produced at Accelegan Inc.) was incubated with custom made Cy5 labelled tracer, terbium streptavidin (Cisbio Inc.) and compound (1% DMSO final) in buffer (50 mM HEPES, pH 7.5, 5 mM MgCl2, 0.005% Tween-20 and 1 mM DTT). After a 60-minute incubation at room temperature, the reaction was measured using a BMG LABTECH CLARIO star Plus via TR-FRET. […] The POC values were fit to a 4-parameter IC50 equation and the IC50 value reported.

[2] = molecular target: T2, KRas G12S (Homo sapiens, UniProt P01116, G12S)
T2 construct: Biotinylated KRas (corresponding to amino acids 1-169, produced at Accelegan Inc.); biotin (biotinylated); purchased Accelegan Inc
T2 sequence (P01116 1-169 isoform P01116-2 G12S): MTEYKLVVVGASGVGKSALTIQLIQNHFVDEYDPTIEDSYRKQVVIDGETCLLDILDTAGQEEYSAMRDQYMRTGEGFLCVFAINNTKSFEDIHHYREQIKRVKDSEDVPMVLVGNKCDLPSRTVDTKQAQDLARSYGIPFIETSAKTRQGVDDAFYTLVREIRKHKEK
Procedure: as §1, §2

[3] = molecular target: T3, KRas WT (Homo sapiens, UniProt P01116)
T3 construct: Biotinylated KRas (corresponding to amino acids 1-169, produced at Accelegan Inc.); biotin (biotinylated); purchased Accelegan Inc
T3 sequence (P01116 1-169 isoform P01116-2): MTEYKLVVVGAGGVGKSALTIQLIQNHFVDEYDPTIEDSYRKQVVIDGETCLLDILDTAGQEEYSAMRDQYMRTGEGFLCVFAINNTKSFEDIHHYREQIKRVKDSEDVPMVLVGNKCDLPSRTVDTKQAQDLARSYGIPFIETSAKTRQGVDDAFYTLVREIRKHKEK
Procedure: as §1, §2

Row | SMILES | IC50 [1] [nM] | IC50 [2] [nM] | IC50 [3] [nM]
1 | O=C1OCCN1C(=O)C1CCN(c2nc(OCC34CCCN3CCC4)nc3c(F)c(-c4cccc5cccc(F)c45)ncc23)CC1 [Example 2, 3-(1-(8-fluoro-7-(8-fluoronaphthalen-1-yl)-2-((tetrahydro-1H-pyrrolizin-7a(5H)-yl)methoxy)pyrido[4,3-d]pyrimidin-4-yl)piperidine-4-carbonyl)oxazolidin-2-one] | > 100000 | 72500 | 73900
2 | O=C(Oc1c(F)cccc1F)[C@@H]1[C@@H]2C[C@H]1CN(c1nc(OCC34CCCN3CCC4)nc3c(F)c(-c4cccc5cccc(F)c45)ncc13)C2 [Example 5, 2,6-difluorophenyl (1R,5S,6r)-3-(8-fluoro-7-(8-fluoronaphthalen-1-yl)-2-((tetrahydro-1H-pyrrolizin-7a(5H)-yl)methoxy)pyrido[4,3-d]pyrimidin-4-yl)-3-azabicyclo[3.1.1]heptane-6-carboxylate] | 7570 | 26500 | 34400
3 | O=C(Oc1c(F)cccc1F)[C@H]1[C@@H]2C[C@H]1CN(c1nc(OCC34CCCN3CCC4)nc3c(F)c(-c4cccc5cccc(F)c45)ncc13)C2 [Example 6, 2,6-difluorophenyl (1R,5S,6s)-3-(8-fluoro-7-(8-fluoronaphthalen-1-yl)-2-((tetrahydro-1H-pyrrolizin-7a(5H)-yl)methoxy)pyrido[4,3-d]pyrimidin-4-yl)-3-azabicyclo[3.1.1]heptane-6-carboxylate] | 10600 | 7950 | 8060
4 | O=C(Oc1ccc(F)cc1)[C@@H]1[C@@H]2C[C@H]1CN(c1nc(OCC34CCCN3CCC4)nc3c(F)c(-c4cccc5cccc(F)c45)ncc13)C2 [Example 7, 4-fluorophenyl (1R,5S,6r)-3-(8-fluoro-7-(8-fluoronaphthalen-1-yl)-2-((tetrahydro-1H-pyrrolizin-7a(5H)-yl)methoxy)pyrido[4,3-d]pyrimidin-4-yl)-3-azabicyclo[3.1.1]heptane-6-carboxylate] | 20400 | 21200 | 24200
5 | O=C(Oc1ccc(F)cc1)[C@H]1[C@@H]2C[C@H]1CN(c1nc(OCC34CCCN3CCC4)nc3c(F)c(-c4cccc5cccc(F)c45)ncc13)C2 [Example 8, 4-fluorophenyl (1R,5S,6s)-3-(8-fluoro-7-(8-fluoronaphthalen-1-yl)-2-((tetrahydro-1H-pyrrolizin-7a(5H)-yl)methoxy)pyrido[4,3-d]pyrimidin-4-yl)-3-azabicyclo[3.1.1]heptane-6-carboxylate] | > 100000 | > 100000 | > 100000
6 | Cc1cc(C)n(C(=O)C2CCN(c3nc(OCC45CCCN4CCC5)nc4c(F)c(-c5cccc6cccc(F)c56)ncc34)CC2)n1 [Example 9, (3,5-dimethyl-1H-pyrazol-1-yl)(1-(8-fluoro-7-(8-fluoronaphthalen-1-yl)-2-((tetrahydro-1H-pyrrolizin-7a(5H)-yl)methoxy)pyrido[4,3-d]pyrimidin-4-yl)piperidin-4-yl)methanone] | 30600 | 31500 | 64600
7 | Cc1ccn(C(=O)C2CCN(c3nc(OCC45CCCN4CCC5)nc4c(F)c(-c5cccc6cccc(F)c56)ncc34)CC2)n1 [Example 10, (1-(8-fluoro-7-(8-fluoronaphthalen-1-yl)-2-((tetrahydro-1H-pyrrolizin-7a(5H)-yl)methoxy)pyrido[4,3-d]pyrimidin-4-yl)piperidin-4-yl)(3-methyl-1H-pyrazol-1-yl)methanone] | 19600 | 4670 | 43900
8 | O=C(C1CCN(c2nc(OCC34CCCN3CCC4)nc3c(F)c(-c4cccc5cccc(F)c45)ncc23)CC1)n1cccn1 [Example 11, (1-(8-fluoro-7-(8-fluoronaphthalen-1-yl)-2-((tetrahydro-1H-pyrrolizin-7a(5H)-yl)methoxy)pyrido[4,3-d]pyrimidin-4-yl)piperidin-4-yl)(1H-pyrazol-1-yl)methanone] | 8160 | 3840 | 9270
9 | O=C(OCC(F)(F)F)[C@@H]1[C@@H]2CC[C@H]1CN(c1nc(OCC34CCCN3CCC4)nc3c(F)c(-c4cccc5cccc(F)c45)ncc13)C2 [Example 18, 2,2,2-trifluoroethyl (1R,5S,8r)-3-(8-fluoro-7-(8-fluoronaphthalen-1-yl)-2-((tetrahydro-1H-pyrrolizin-7a(5H)-yl)methoxy)pyrido[4,3-d]pyrimidin-4-yl)-3-azabicyclo[3.2.1]octane-8-carboxylate] | 42100 | 30000 | 7970
10 | COC(=O)[C@@H]1[C@@H]2CC[C@H]1CN(c1nc(OCC34CCCN3CCC4)nc3c(F)c(-c4cccc5cccc(F)c45)ncc13)C2 [Example 19, methyl (1R,5S,8s)-3-(8-fluoro-7-(8-fluoronaphthalen-1-yl)-2-((tetrahydro-1H-pyrrolizin-7a(5H)-yl)methoxy)pyrido[4,3-d]pyrimidin-4-yl)-3-azabicyclo[3.2.1]octane-8-carboxylate] | 20100 | 7460 | 2800
11 | N#Cc1ccc(OC(=O)[C@@H]2[C@@H]3CC[C@H]2CN(c2nc(OCC45CCCN4CCC5)nc4c(F)c(-c5cccc6cccc(F)c56)ncc24)C3)cc1 [Example 20, 4-cyanophenyl (1R,5S,8r)-3-(8-fluoro-7-(8-fluoronaphthalen-1-yl)-2-((tetrahydro-1H-pyrrolizin-7a(5H)-yl)methoxy)pyrido[4,3-d]pyrimidin-4-yl)-3-azabicyclo[3.2.1]octane-8-carboxylate] | 27300 | 98800 | 14700
12 | COC(=O)C1CCCN(c2nc(OCC34CCCN3CCC4)nc3c(F)c(-c4cccc5cccc(F)c45)ncc23)CC1 (stereo not drawn) [Example 49, methyl 1-(8-fluoro-7-(8-fluoronaphthalen-1-yl)-2-((tetrahydro-1H-pyrrolizin-7a(5H)-yl)methoxy)pyrido[4,3-d]pyrimidin-4-yl) azepane-4-carboxylate] | 65900 | 54800 | –

These reach a lower IC50 [1]. Values come first.

Row | IC50 [1] [nM] | IC50 [2] [nM] | IC50 [3] [nM] | SMILES
13 | 3440 | 55600 | – | O=C(Oc1ccc(C(F)(F)F)cc1)C1CCCN(c2nc(OCC34CCCN3CCC4)nc3c(F)c(-c4cccc5cccc(F)c45)ncc23)CC1 (stereo not drawn) [Example 50, 4-(trifluoromethyl)phenyl 1-(8-fluoro-7-(8-fluoronaphthalen-1-yl)-2-((tetrahydro-1H-pyrrolizin-7a(5H)-yl)methoxy)pyrido[4,3-d]pyrimidin-4-yl) azepane-4-carboxylate]
14 | 2740 | 30100 | – | O=C(Oc1ccc(F)c(F)c1)C1CCCN(c2nc(OCC34CCCN3CCC4)nc3c(F)c(-c4cccc5cccc(F)c45)ncc23)CC1 (stereo not drawn) [Example 48, 3,4-difluorophenyl 1-(8-fluoro-7-(8-fluoronaphthalen-1-yl)-2-((tetrahydro-1H-pyrrolizin-7a(5H)-yl)methoxy)pyrido[4,3-d]pyrimidin-4-yl) azepane-4-carboxylate]
15 | 1080 | 15300 | 5780 | O=C[C@@H]1[C@@H]2CC[C@H]1CN(c1nc(OCC34CCCN3CCC4)nc3c(F)c(-c4cccc5cccc(F)c45)ncc13)C2 [Example 17, (1R,5S,8r)-3-(8-fluoro-7-(8-fluoronaphthalen-1-yl)-2-((tetrahydro-1H-pyrrolizin-7a(5H)-yl)methoxy)pyrido[4,3-d]pyrimidin-4-yl)-3-azabicyclo[3.2.1]octane-8-carbaldehyde]
16 | 877 | > 100000 | 45000 | O=C(Oc1ccc(F)cc1)C1CCN(c2nc(OCC34CCCN3CCC4)nc3c(F)c(-c4cccc5cccc(F)c45)ncc23)CC1 [Example 14, 4-fluorophenyl 1-(8-fluoro-7-(8-fluoronaphthalen-1-yl)-2-((tetrahydro-1H-pyrrolizin-7a(5H)-yl)methoxy)pyrido[4,3-d]pyrimidin-4-yl)piperidine-4-carboxylate]
17 | 808 | 59600 | 48500 | O=C(Oc1c(F)cc(F)cc1F)C1CCN(c2nc(OCC34CCCN3CCC4)nc3c(F)c(-c4cccc5cccc(F)c45)ncc23)CC1 [Example 12, 2,4,6-trifluorophenyl 1-(8-fluoro-7-(8-fluoronaphthalen-1-yl)-2-((tetrahydro-1H-pyrrolizin-7a(5H)-yl)methoxy)pyrido[4,3-d]pyrimidin-4-yl)piperidine-4-carboxylate]
18 | 582 | 346 | 649 | O=C(Nc1ccccn1)C1CCN(c2nc(OCC34CCCN3CCC4)nc3c(F)c(-c4cccc5cccc(F)c45)ncc23)CC1 [Example 3, 1-(8-fluoro-7-(8-fluoronaphthalen-1-yl)-2-((tetrahydro-1H-pyrrolizin-7a(5H)-yl)methoxy)pyrido[4,3-d]pyrimidin-4-yl)-N-(pyridin-2-yl)piperidine-4-carboxamide]
19 | 272 | 39000 | 28700 | O=C(Oc1ccc(F)cc1F)C1CCN(c2nc(OCC34CCCN3CCC4)nc3c(F)c(-c4cccc5cccc(F)c45)ncc23)CC1 [Example 13, 2,4-difluorophenyl 1-(8-fluoro-7-(8-fluoronaphthalen-1-yl)-2-((tetrahydro-1H-pyrrolizin-7a(5H)-yl)methoxy)pyrido[4,3-d]pyrimidin-4-yl)piperidine-4-carboxylate]
